{"source": "patent EP2387573B1", "about": "“6-PHENYL-1H-IMIDAZO[4,5-C]PYRIDINE-4-CARBONITRILE DERIVATIVES AS CATHEPSIN S AND/OR CATHEPSIN K INHIBITORS” (Organon BioSciences Nederland B.V., priority 2009, dated 2010)", "key": {"[1]": {"molecular_target": "T1, Cathepsin S (Homo sapiens, UniProt P25774)", "T1 sequence (P25774 115-331)": "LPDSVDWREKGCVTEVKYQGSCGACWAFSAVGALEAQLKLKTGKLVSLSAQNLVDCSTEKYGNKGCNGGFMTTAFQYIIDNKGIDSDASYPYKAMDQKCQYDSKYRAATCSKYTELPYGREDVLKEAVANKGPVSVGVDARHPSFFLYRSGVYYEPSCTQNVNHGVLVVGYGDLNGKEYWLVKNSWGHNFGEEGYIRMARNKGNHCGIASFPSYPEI", "experiment": "Cathepsin S assay procedure (inhibition of recombinant enzyme, fluorogenic substrate Z-Val-Val-Arg-AMC)", "format": "biochemical", "conditions": "pH5.5, fluorescence at 20 minutes; read-out: pIC50 (negative logarithm of the IC50 concentration) for inhibition of human cathepsin S (converted)", "experimental": "EXAMPLE 32 Cathepsin S assay procedure\n25µl of a 2mg/l solution of activated recombinant human cathepsin S, in assay buffer, is then added to the well, yielding a final inhibitor concentration of 10µM.\nEnzyme activity is determined by measuring the fluorescence of the liberated aminomethylcoumarin at […] using 390nm excitation, at 20 minutes. Percentage enzyme activity is calculated by comparison of this activity to that of a solution containing no inhibitor. Compounds are subsequently subjected to a dose response curve analysis in order to determine IC50 values for active compounds (where IC50 is the concentration of test compound causing 50 % inhibition of the enzymatic activity). Compounds of the invention typically have a pIC50 (negative logarithm of the IC50 concentration) for inhibition of human cathepsin S of more than 6. Most compounds of the invention have a pIC50 of more than 7, such as exemplified by the compounds of examples 1a, 1b, 2a, 7d, 12a, 14a, 14b, 14c, 14d, 14e, 14f, 14g, 14h, 14i, 17, 18."}, "[2]": {"molecular_target": "T1, Cathepsin S", "experiment": "Cell based lip10 assay (Lip10 accumulation, anti-CD74 ELISA)", "set-up": "endogenous in cells; host or cells: Jiyoye human B lymphoblastoid cells", "conditions": "Human B lymphoblastoid cells (Jiyoye), 24 hours, relative to E64d / LHVS-treated cells; read-out: pEC50 (negative logarithm of the EC50 concentration) (converted)", "source_text": "In some cases, these cell based activities are up to 100 fold greater than previously disclosed compounds in WO 2007/080191.\nEXAMPLE 34 Cathepsin S assay\nDuring normal antigen presentation, Lip10 is proteolytically degraded to enable loading of a peptide fragment and subsequent MHC-II presentation on the surface of antigen presenting cells. The cleavage process is mediated by Cathepsin S. Thus, the Lip10 assay is an in vitro measure of a compound's ability to block cathepsin S and by extension antigen presentation. A compound that causes the accumulation of Lip10 at low concentration would be expected to block presentation of antigens.\nCell based lip10 assay procedure\nHuman B lymphoblastoid cells (Jiyoye) were cultured in RPMI 1640 medium at a density of 500 000 cells/ml in 24-well plates. Cells were treated with a concentration range of compounds (0.001-10µM) and vehicle alone (DMSO, 0.1% v/v). In order to generate positive control treatments separate wells were treated with 10µM E64d & 0.1µM LHVS. The cells were incubated at 37°C in a humidified incubator containing 5% CO2. After 24 hours the plates were centrifuged at 150 x g for five minutes and the media removed. Cells were lysed by adding 65µl of ice-cold phosphate buffered saline (PBS) containing 1% (v/v) Triton X-100 and protease inhibitors and incubated on ice for 20 minutes. The samples were centrifuged at 18 000 x g for 15 minutes at 4°C and the resulting supernatants collected and stored at -80°C until required. After measurement of protein concentration using a micro-BCA protein assay all samples were diluted to 10µg protein/ml and 50µl of each sample were coated overnight at 4°C onto wells of high protein-binding 96-well plates. The wells were washed once with PBS (200µl/well) and then incubated at room temperature for 2 hours with 10µg/ml mouse anti-CD74 Pin.1 monoclonal antibody (50µl/well) in PBS containing 0.05% (v/v) Tween-20 (PBS-T) and 2% (w/v) BSA (PBS-T/BSA). Unbound antibody was then removed by washing three times with PBS-T and followed by the addition of rabbit anti-mouse IgG antibody conjugated to horseradish peroxidase. After washing five times with PBS-T 100µl of tetramethylbenzidine substrate was added to each well and incubated for 10 minutes on a plate shaker. The reaction was stopped by the addition of 100µl of 1 M hydrochloric acid. Antibody binding was quantified by measuring the optical density (OD, 450nm) using a Molecular Devices Spectramax Plus. The OD of vehicle-only treated cells was removed from all values and the data was expressed as a percentage of the OD generated from the mean E64d / LHVS-treated cells. The potency of compounds (EC50) was measured by calculating the concentration of inhibitor required to generate 50% inhibition relative to E64d / LHVS-treated cells."}}, "note": "Counter-ions that a name gives are not always drawn."}
{"smiles": "Cn1cnc2c(C#N)nc(-c3ccc(OCCCNS(C)(=O)=O)c(C(F)(F)F)c3)cc21", "note": "[Example 1a, N-(3-(4-(4-cyano-1-methyl-1H-imidazo[4,5-c]pyridin-6-yl)-2-(trifluoromethyl)phenoxy)propyl)methanesulfonamide]", "values": [{"measurement": "IC50", "setting": "[1]", "value": "< 100", "unit": "nM"}]}
{"smiles": "CC(=O)NCCCOc1ccc(-c2cc3c(ncn3C)c(C#N)n2)cc1C(F)(F)F", "note": "[Example 1b, 6-[4-(3-acetylaminopropoxy)-3-(trifluoromethyl)-phenyl]-1-methyl-1H-imidazo[4,5-c]pyridine-4-carbonitrile]", "values": [{"measurement": "IC50", "setting": "[1]", "value": "< 100", "unit": "nM"}]}
{"smiles": "CC(=O)N(C)CCCOc1ccc(-c2cc3c(ncn3C)c(C#N)n2)cc1C(F)(F)F", "note": "[Example 2a, 6-{4-[3-(N-acetyl-N-methylamino)propoxy]-3-(trifluoromethyl)-phenyl}-1-methyl-1H-imidazo[4,5-c]pyridine-4-carbonitrile]", "values": [{"measurement": "IC50", "setting": "[1]", "value": "< 100", "unit": "nM"}]}
{"smiles": "CC(=O)N(C)CCOc1ccc(-c2cc3c(ncn3C)c(C#N)n2)cc1C(F)(F)F", "note": "[Example 7d, 1-methyl-6-(4-(2-(N-acetyl-N-methylamino)ethoxy)-3-(trifluoromethyl)phenyl)-1H-imidazo[4,5-c]pyridine-4-carbonitrile]", "values": [{"measurement": "IC50", "setting": "[1]", "value": "< 100", "unit": "nM"}]}
{"smiles": "CCN(C)c1cc(COc2ccc(-c3cc4c(ncn4C)c(C#N)n3)cc2C(F)(F)F)ccn1", "note": "[Example 12a, 1-Methyl-6-{4-[(2-(N-ethyl-N-methylamino)-pyridin-4-yl)-methoxy]-3-(trifluoromethyl)-phenyl}-1H-imidazo[4,5-c]pyridine-4-carbonitrile Hydrocloride]", "values": [{"measurement": "IC50", "setting": "[1]", "value": "< 100", "unit": "nM"}, {"measurement": "EC50", "setting": "[2]", "value": "< 100", "unit": "nM"}]}
{"smiles": "CCNc1cc(COc2ccc(-c3cc4c(ncn4C)c(C#N)n3)cc2C(F)(F)F)ccn1", "note": "[Example 12b, 1-Methyl-6-{4-[(2-(N-ethylamino)-pyridin-4-yl)-methoxy]-3-(trifluoromethyl)-phenyl}-1H-imidazo[4,5-c]pyridine-4-carbonitrile]", "values": [{"measurement": "EC50", "setting": "[2]", "value": "< 100", "unit": "nM"}]}
{"smiles": "CNc1cc(COc2ccc(-c3cc4c(ncn4C)c(C#N)n3)cc2C(F)(F)F)ccn1", "note": "[Example 12c, 1-Methyl-6-{4-[(2-(N-methylamino)-pyridin-4-yl)-methoxy]-3-(trifluoromethyl)-phenyl}-1H-imidazo[4,5-c]pyridine-4-carbonitrile]", "values": [{"measurement": "EC50", "setting": "[2]", "value": "< 100", "unit": "nM"}]}
{"smiles": "Cn1cnc2c(C#N)nc(-c3ccc(OCCC4CCN(Cc5ncco5)CC4)c(C(F)(F)F)c3)cc21", "note": "[Example 14a, 1-methyl-6-(4-(2-(1-(oxazol-2-ylmethyl)piperidin-4-yl)ethoxy)-3-(trifluoromethyl)phenyl)-1H-imidazo[4,5-c]pyridine-4-carbonitrile hydrochloride]", "values": [{"measurement": "IC50", "setting": "[1]", "value": "< 100", "unit": "nM"}, {"measurement": "EC50", "setting": "[2]", "value": "< 100", "unit": "nM"}]}
{"smiles": "Cc1cc(CN2CCC(CCOc3ccc(-c4cc5c(ncn5C)c(C#N)n4)cc3C(F)(F)F)CC2)no1", "note": "[Example 14b, 1-methyl-6-(4-(2-(1-((5-methylisoxazol-3-yl)methyl)piperidin-4-yl)ethoxy)-3-(trifluoromethyl)phenyl)-1H-imidazo[4,5-c]pyridine-4-carbonitrile]", "values": [{"measurement": "IC50", "setting": "[1]", "value": "< 100", "unit": "nM"}, {"measurement": "EC50", "setting": "[2]", "value": "< 100", "unit": "nM"}]}
{"smiles": "Cc1noc(C)c1CN1CCC(CCOc2ccc(-c3cc4c(ncn4C)c(C#N)n3)cc2C(F)(F)F)CC1", "note": "[Example 14c, 6-(4-(2-(1-((3,5-dimethylisoxazol-4-yl)methyl)piperidin-4-yl)ethoxy)-3-(trifluoromethyl)phenyl)-1-methyl-1H-imidazo[4,5-c]pyridine-4-carbonitrile]", "values": [{"measurement": "IC50", "setting": "[1]", "value": "< 100", "unit": "nM"}, {"measurement": "EC50", "setting": "[2]", "value": "< 100", "unit": "nM"}]}
{"smiles": "CN(C)C(=O)CN1CCC(CCOc2ccc(-c3cc4c(ncn4C)c(C#N)n3)cc2C(F)(F)F)CC1", "note": "[Example 14d, 6-(4-(2-(1-(2-dimethylamino-2-oxo-ethyl)piperidin-4-yl)ethoxy)-3-(trifluoromethyl)phenyl)-1-methyl-1H-imidazo[4,5-c]pyridine-4-carbonitrile]", "values": [{"measurement": "IC50", "setting": "[1]", "value": "< 100", "unit": "nM"}, {"measurement": "EC50", "setting": "[2]", "value": "< 100", "unit": "nM"}]}
{"smiles": "Cn1cnc2c(C#N)nc(-c3ccc(OCCC4CCN(CC(=O)N5CCCC5)CC4)c(C(F)(F)F)c3)cc21", "note": "[Example 14e, 6-(4-(2-(1-(2-oxo-2-(pyrrolidin-1-yl)ethyl)piperidin-4-yl)ethoxy)-3-(trifluoromethyl)phenyl)-1-methyl-1H-imidazo[4,5-c]pyridine-4-carbonitrile]", "values": [{"measurement": "IC50", "setting": "[1]", "value": "< 100", "unit": "nM"}]}
{"smiles": "Cn1cnc2c(C#N)nc(-c3ccc(OCCC4CCN(CCF)CC4)c(C(F)(F)F)c3)cc21", "note": "[Example 14f, 6-(4-(2-(1-(2-fluoroethyl)piperidin-4-yl)ethoxy)-3-(trifluoromethyl)phenyl)-1-methyl-1H-imidazo[4,5-c]pyridine-4-carbonitrile]", "values": [{"measurement": "IC50", "setting": "[1]", "value": "< 100", "unit": "nM"}]}
{"smiles": "Cn1cnc2c(C#N)nc(-c3ccc(OCCC4CCN(CC(F)F)CC4)c(C(F)(F)F)c3)cc21", "note": "[Example 14g, 6-(4-(2-(1-(2,2-difluoroethyl)piperidin-4-yl)ethoxy)-3-(trifluoromethyl)phenyl)-1-methyl-1H-imidazo[4,5-c]pyridine-4-carbonitrile]", "values": [{"measurement": "IC50", "setting": "[1]", "value": "< 100", "unit": "nM"}]}
{"smiles": "COCCN1CCC(CCOc2ccc(-c3cc4c(ncn4C)c(C#N)n3)cc2C(F)(F)F)CC1", "note": "[Example 14h, 6-(4-(2-(1-(2-methoxyethyl)piperidin-4-yl)ethoxy)-3-(trifluoromethyl)phenyl)-1-methyl-1H-imidazo[4,5-c]pyridine-4-carbonitrile]", "values": [{"measurement": "IC50", "setting": "[1]", "value": "< 100", "unit": "nM"}]}
{"smiles": "Cn1cnc2c(C#N)nc(-c3ccc(OCCC4CCN(Cc5nccs5)CC4)c(C(F)(F)F)c3)cc21", "note": "[Example 14i, 1-methyl-6-(4-(2-(1-(thiazol-2-ylmethyl)piperidin-4-yl)ethoxy)-3-(trifluoromethyl)-phenyl)-1H-imidazo[4,5-c]pyridine-4-carbonitrile]", "values": [{"measurement": "IC50", "setting": "[1]", "value": "< 100", "unit": "nM"}]}
{"smiles": "Cn1cnc2c(C#N)nc(-c3ccc(OCCN4C=NC(C)(C)C4=O)c(C(F)(F)F)c3)cc21", "note": "[Example 18, 6-(4-(2-(4,4-dimethyl-5-oxo-4,5-dihydro-1H-imidazol-1-yl)ethoxy)-3-(trifluoromethyl)phenyl)-1-methyl-1H-imidazo[4,5-c]pyridine-4-carbonitrile TFA salt]", "values": [{"measurement": "IC50", "setting": "[1]", "value": "< 100", "unit": "nM"}]}
